According to ChEMBL document CHEMBL1144953, “Anti-androgens with full antagonistic activity toward human prostate tumor LNCaP cells with mutated androgen receptor” (Bioorg Med Chem Lett, 2003):

molecular target: T1, Androgen receptor (Homo sapiens, UniProt P10275); experiment: Dissociation constant against GST-hARLBD was measured in SC-3 cell by using [3H]testosterone as radioligand; type: cell-based
T1 sequence (P10275 whole entry): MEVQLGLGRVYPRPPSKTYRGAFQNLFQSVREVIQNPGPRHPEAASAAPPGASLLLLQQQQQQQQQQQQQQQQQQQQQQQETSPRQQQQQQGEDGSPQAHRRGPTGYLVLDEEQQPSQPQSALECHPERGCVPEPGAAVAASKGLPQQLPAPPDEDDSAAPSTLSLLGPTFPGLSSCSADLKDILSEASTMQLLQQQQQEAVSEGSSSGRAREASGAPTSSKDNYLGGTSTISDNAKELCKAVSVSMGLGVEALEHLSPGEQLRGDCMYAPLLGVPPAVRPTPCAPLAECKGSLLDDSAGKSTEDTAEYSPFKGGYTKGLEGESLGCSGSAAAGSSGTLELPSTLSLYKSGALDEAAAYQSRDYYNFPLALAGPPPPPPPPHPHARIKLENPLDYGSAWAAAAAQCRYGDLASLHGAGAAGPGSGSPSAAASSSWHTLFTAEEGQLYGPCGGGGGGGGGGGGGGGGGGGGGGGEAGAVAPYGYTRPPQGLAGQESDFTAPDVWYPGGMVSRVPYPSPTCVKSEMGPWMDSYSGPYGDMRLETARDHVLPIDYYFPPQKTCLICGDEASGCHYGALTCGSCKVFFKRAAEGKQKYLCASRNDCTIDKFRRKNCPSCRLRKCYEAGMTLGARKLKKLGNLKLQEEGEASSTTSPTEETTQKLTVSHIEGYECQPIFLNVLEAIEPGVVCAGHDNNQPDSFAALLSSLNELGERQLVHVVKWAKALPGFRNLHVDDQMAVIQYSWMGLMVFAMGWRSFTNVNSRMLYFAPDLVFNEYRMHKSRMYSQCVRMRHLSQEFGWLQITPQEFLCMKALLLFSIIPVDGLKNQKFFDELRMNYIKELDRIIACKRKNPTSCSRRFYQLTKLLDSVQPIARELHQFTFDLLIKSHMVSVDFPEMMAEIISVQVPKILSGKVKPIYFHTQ

Row | SMILES | Kd [nM]
1 | O=C1ON=C(c2ccc(F)cc2)/C1=C/c1ccc(N2CCCC2)cc1 | 1.4
2 | O=C1ON=C(c2ccccc2F)/C1=C/c1ccc(N2CCCC2)cc1 | 1.4
3 | O=C1ON=C(c2ccc(O)cc2)/C1=C/c1ccc(N2CCCC2)cc1 | 1.4
4 | CCCCN(CCCC)c1ccc(/C=C2\C(=O)ON=C2c2ccccc2)cc1 | 1.4
